pIC50: −log10 of the molar value.
Assays:
Assay type in all cases: biochemical
[1] = biological target: recombinant hSSAO (Homo sapiens (Human), UniProt Q16853); experiment: SSAO Activity Assay (MAO-Glo assay kit); details: 40 μM substrate, 30 mins pre-incubation
Procedure, shortened: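 Substrate was 4 μM in MAO-B buffer for hMAO-B and 40 μM in MAO-A buffer for hSSAO and hMAO-A. Each enzyme first saw compound (0.1% DMSO vehicle) for 30 min at room temperature.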

[2] = biological target: recombinant hMAO-A (Homo sapiens (Human), UniProt P21397); experiment: MAO-A activity assay (MAO-Glo assay kit); details: 40 μM substrate, 30 mins pre-incubation
Experimental: (§1) The biological activities of the compounds of the present application can be assessed with methods and assays known in the art. For example, the potency of the compounds of the present application can be evaluated with an SSAO Activity Assay. Briefly, compounds of the present application can be applied to recombinant hSSAO, hMAO-A, and hMAO-B isoforms and the amine oxidase activity of the enzymes are measured after the addition and subsequent oxidation of the luminogenic substrate (e.g., with the MAO-Glo assay kit from Promega). The IC50 can be calculated, for example, by fitting the dose response curve using a 4-parameter non-linear regression routine.
(§2) Amine oxidase activity of recombinant hSSAO, hMAO-A, and hMAO-B isoforms are measured using the MAO-Glo assay kit (Promega, V1402). Ten nL test compounds (with DMSO as vehicle, 0.1% v/v for hSSAO, hMAO-A and hMAO-B) were added into assay plates by Echo, and pre-incubated with 5 μL of enzyme for 30 mins at room temperature before the addition of 5 μL of luminogenic substrate. The substrate concentration is 40 μM for human recombinant SSAO, 40 μM for human recombinant MAO-A, and 4 μM for human recombinant MAO-B. The hSSAO and hMAO-A assays were conducted in the MAO-A reaction buffer in the kit, and the MAO-B assay was conducted in the MAO-B reaction buffer. Oxidation of the substrate was conducted for 1 hr, before the addition of detecting reagent according the manufacture's protocol. The IC50 value of the tested compounds was calculated by fitting the dose response curve using a 4-parameter non-linear regression routine.

[3] = biological target: recombinant hMAO-B (Homo sapiens (Human), UniProt P27338); experiment: MAO-B activity assay (MAO-Glo assay kit); details: 4 μM substrate, 30 mins pre-incubation
Experimental: as §1, §2

Sequence of recombinant hSSAO (Q16853 whole entry): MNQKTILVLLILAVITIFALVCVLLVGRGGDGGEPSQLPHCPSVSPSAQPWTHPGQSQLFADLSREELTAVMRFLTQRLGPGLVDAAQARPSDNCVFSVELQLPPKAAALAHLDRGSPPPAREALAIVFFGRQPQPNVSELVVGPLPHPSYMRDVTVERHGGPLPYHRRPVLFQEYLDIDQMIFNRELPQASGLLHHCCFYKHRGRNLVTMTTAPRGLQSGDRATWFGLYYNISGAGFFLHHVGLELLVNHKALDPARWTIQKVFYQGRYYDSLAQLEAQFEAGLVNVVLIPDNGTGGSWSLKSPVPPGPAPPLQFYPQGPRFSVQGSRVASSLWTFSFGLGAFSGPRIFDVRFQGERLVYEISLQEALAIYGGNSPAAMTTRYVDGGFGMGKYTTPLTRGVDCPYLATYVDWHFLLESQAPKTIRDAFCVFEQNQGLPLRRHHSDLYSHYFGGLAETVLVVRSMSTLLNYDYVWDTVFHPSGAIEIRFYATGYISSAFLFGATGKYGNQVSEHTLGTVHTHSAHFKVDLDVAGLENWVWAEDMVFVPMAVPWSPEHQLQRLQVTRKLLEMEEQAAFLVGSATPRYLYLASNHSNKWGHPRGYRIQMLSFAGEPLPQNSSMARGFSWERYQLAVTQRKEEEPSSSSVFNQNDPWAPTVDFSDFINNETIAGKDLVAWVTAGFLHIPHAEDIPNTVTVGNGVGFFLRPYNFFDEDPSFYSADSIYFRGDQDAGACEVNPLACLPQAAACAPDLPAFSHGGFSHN
Sequence of recombinant hMAO-A (P21397 whole entry, canonical isoform): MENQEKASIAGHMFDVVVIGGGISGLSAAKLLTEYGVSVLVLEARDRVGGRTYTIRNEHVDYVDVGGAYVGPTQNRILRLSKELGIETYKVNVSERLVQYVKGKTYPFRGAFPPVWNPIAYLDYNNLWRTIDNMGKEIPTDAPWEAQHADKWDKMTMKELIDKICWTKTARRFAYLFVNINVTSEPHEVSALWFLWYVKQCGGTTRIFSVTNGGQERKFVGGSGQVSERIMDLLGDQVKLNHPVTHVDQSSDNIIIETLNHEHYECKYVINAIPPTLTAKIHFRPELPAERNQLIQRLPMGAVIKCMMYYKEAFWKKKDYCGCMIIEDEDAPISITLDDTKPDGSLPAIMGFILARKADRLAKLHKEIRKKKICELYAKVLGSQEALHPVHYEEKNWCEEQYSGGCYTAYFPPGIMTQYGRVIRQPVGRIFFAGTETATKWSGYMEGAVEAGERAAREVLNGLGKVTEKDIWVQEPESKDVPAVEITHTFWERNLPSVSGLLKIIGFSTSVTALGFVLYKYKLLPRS
Sequence of recombinant hMAO-B (P27338 whole entry): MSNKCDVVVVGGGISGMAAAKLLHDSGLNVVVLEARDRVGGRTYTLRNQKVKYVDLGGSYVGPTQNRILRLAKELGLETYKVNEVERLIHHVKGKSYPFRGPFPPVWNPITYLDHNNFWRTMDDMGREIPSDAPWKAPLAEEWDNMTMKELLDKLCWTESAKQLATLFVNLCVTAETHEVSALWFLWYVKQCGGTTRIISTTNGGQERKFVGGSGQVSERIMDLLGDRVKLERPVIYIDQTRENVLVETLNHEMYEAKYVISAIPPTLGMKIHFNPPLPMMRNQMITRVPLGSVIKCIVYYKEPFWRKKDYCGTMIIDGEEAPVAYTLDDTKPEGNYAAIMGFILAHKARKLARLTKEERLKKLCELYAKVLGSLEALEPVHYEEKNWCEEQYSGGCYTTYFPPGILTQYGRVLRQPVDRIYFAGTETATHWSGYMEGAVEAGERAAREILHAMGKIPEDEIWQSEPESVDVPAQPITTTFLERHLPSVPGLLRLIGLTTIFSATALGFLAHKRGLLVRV

pIC50 [1] | pIC50 [2] | pIC50 [3] | Compound
> 7.70 | < 4.52 | 4.52 to 5.00 | NC/C(=C\F)COc1ccc(S(=O)(=O)CC23CCC(C(=O)NC4CC4)(CC2)CC3)cc1 [Compound 75, (E)-4-(((4-((2-(aminomethyl)-3-fluoroallyl)oxy)phenyl)sulfonyl)methyl)-N-cyclopropylbicyclo[2.2.2]octane-1-carboxamide]
> 7.70 | < 4.52 | < 4.52 | CC(C)(C)C(=O)NC12CC(CS(=O)(=O)c3ccc(OC/C(=C/F)CN)cc3)(C1)C2 [Compound 77, (E)-N-(3-(((4-((2-(aminomethyl)-3-fluoroallyl)oxy)phenyl)sulfonyl)methyl)bicyclo[1.1.1]pentan-1-yl)pivalamide]
> 7.70 | < 4.52 | 4.52 to 5.00 | CC(C)(C)C(=O)NC12CCC(CS(=O)(=O)c3ccc(OC/C(=C/F)CN)cc3)(CC1)CC2 [Compound 90, (E)-N-(4-(((4-((2-(aminomethyl)-3-fluoroallyl)oxy)phenyl)sulfonyl)methyl)bicyclo[2.2.2]octan-1-yl)pivalamide]
> 7.70 | < 4.52 | 4.52 to 5.00 | NC/C(=C\F)COc1ccc(S(=O)(=O)CC23CCC(NC(=O)C4CCC4)(CC2)CC3)cc1 [Compound 92, (E)-N-(4-(((4-((2-(aminomethyl)-3-fluoroallyl)oxy)phenyl)sulfonyl)methyl)bicyclo[2.2.2]octan-1-yl)cyclobutanecarboxamide]
7.00 to 7.70 | > 5.00 | > 5.00 | NC/C(=C\F)COc1ccc(S(=O)(=O)CN2Cc3ccccc3C2=O)cc1 [Compound 118, (E)-2-(((4-((2-(aminomethyl)-3-fluoroallyl)oxy)phenyl)sulfonyl)methyl)isoindolin-1-one]
7.00 to 7.70 | < 4.52 | < 4.52 | CC1(C)CCC(=O)N1CS(=O)(=O)c1ccc(OC/C(=C/F)CN)cc1 [Compound 123, (E)-1-(((4-((2-(aminomethyl)-3-fluoroallyl)oxy)phenyl)sulfonyl)methyl)-5,5-dimethylpyrrolidin-2-one]
7.00 to 7.70 | < 4.52 | < 4.52 | CC1(C)CCC(=O)N1CS(=O)(=O)c1ccc(OC/C(=C/F)CN)cc1Cl [Compound 124, (E)-1-(((4-((2-(aminomethyl)-3-fluoroallyl)oxy)-2-chlorophenyl)sulfonyl)methyl)-5,5-dimethylpyrrolidin-2-one]
6.30 to 7.00 | < 4.52 | 4.52 to 5.00 | CC1(C)CC(=O)N(CS(=O)(=O)c2ccc(OC/C(=C/F)CN)cc2)C1 [Compound 126, (E)-1-(((4-((2-(aminomethyl)-3-fluoroallyl)oxy)phenyl)sulfonyl)methyl)-4,4-dimethylpyrrolidin-2-one]
6.30 to 7.00 | < 4.52 | > 5.00 | NC/C(=C\F)COc1ccc(S(=O)(=O)CN2CCC3(CCCC3)C2=O)cc1 [Compound 127, (E)-2-(((4-((2-(aminomethyl)-3-fluoroallyl)oxy)phenyl)sulfonyl)methyl)-2-azaspiro[4.4]nonan-1-one]

The remaining lines, values behind:

Compound | pIC50 [1] | pIC50 [2] | pIC50 [3]
CN(C(=O)C12CCC(CS(=O)(=O)c3ccc(OC/C(=C/F)CN)cc3)(CC1)CC2)C1CC1 [Compound 73, (E)-4-(((4-((2-(aminomethyl)-3-fluoroallyl)oxy)phenyl)sulfonyl)methyl)-N-cyclopropyl-N-methylbicyclo[2.2.2]octane-1-carboxamide] | 7.00 to 7.70 | < 4.52 | < 4.52
CCN(CC)C(=O)C12CCC(CS(=O)(=O)c3ccc(OC/C(=C/F)CN)cc3)(CC1)CC2 [Compound 74, (E)-4-(((4-((2-(aminomethyl)-3-fluoroallyl)oxy)phenyl)sulfonyl)methyl)-N,N-diethylbicyclo[2.2.2] octane-1-carboxamide] | 7.00 to 7.70 | < 4.52 | < 4.52
CC(C)C(=O)NC12CCC(CS(=O)(=O)c3ccc(OC/C(=C/F)CN)cc3)(CC1)CC2 [Compound 80, (E)-N-(4-(((4-((2-(aminomethyl)-3-fluoroallyl)oxy)phenyl)sulfonyl)methyl)bicyclo[2.2.2]octan-1-yl)isobutyramide] | > 7.70 | < 4.52 | 4.52 to 5.00
NC/C(=C\F)COc1ccc(S(=O)(=O)CC23CCC(NS(=O)(=O)C4CC4)(CC2)CC3)cc1 [Compound 81, (E)-N-(4-(((4-((2-(aminomethyl)-3-fluoroallyl)oxy)phenyl)sulfonyl)methyl)bicyclo[2.2.2]octan-1-yl)cyclopropanesulfonamide] | > 7.70 | < 4.52 | < 4.52
NC/C(=C\F)COc1ccc(S(=O)(=O)CC23CCC(NC(=O)C4CC4(F)F)(CC2)CC3)cc1 (stereo not drawn) [Compound 84, (E)-N-(4-(((4-((2-(aminomethyl)-3-fluoroallyl)oxy)phenyl)sulfonyl)methyl)bicyclo[2.2.2]octan-1-yl)-2,2-difluorocyclopropane-1-carboxamide] | > 7.70 | < 4.52 | 4.52 to 5.00
NC/C(=C\F)COc1ccc(S(=O)(=O)CC23CCC(NC(=O)C4(C(F)(F)F)CC4)(CC2)CC3)cc1 [Compound 85, (E)-N-(4-(((4-((2-(aminomethyl)-3-fluoroallyl)oxy)phenyl)sulfonyl)methyl)bicyclo[2.2.2]octan-1-yl)-1-(trifluoromethyl)cyclopropane-1-carboxamide] | 7.00 to 7.70 | < 4.52 | 4.52 to 5.00
NC/C(=C\F)COc1ccc(S(=O)(=O)CC23CCC(NC(=O)C4(F)CC4)(CC2)CC3)cc1 [Compound 86, (E)-N-(4-(((4-((2-(aminomethyl)-3-fluoroallyl)oxy)phenyl)sulfonyl)methyl)bicyclo[2.2.2]octan-1-yl)-1-fluorocyclopropane-1-carboxamide] | > 7.70 | < 4.52 | > 5.00
NC/C(=C\F)COc1ccc(S(=O)(=O)CCN2CCCCC2=O)cc1 [Compound 107, (E)-1-(2-((4-((2-(aminomethyl)-3-fluoroallyl)oxy)phenyl)sulfonyl)ethyl) piperidin-2-one] | > 7.70 | < 4.52 | > 5.00
CC(CN1C(=O)CCC1(C)C)CS(=O)(=O)c1ccc(OC/C(=C/F)CN)cc1 (stereo not drawn) [Compound 111, (E)-1-(3-((4-((2-(aminomethyl)-3-fluoroallyl)oxy)phenyl)sulfonyl)-2-methylpropyl)-5,5-dimethylpyrrolidin-2-one] | 7.00 to 7.70 | < 4.52 | 4.52 to 5.00
CC(CN1CCOCC1)CS(=O)(=O)c1ccc(OC/C(=C/F)CN)cc1F (stereo not drawn) [Compound 114, (E)-3-fluoro-2-((3-fluoro-4-((2-methyl-3-morpholinopropyl)sulfonyl)phenoxy)methyl)prop-2-en-1-amine] | 7.00 to 7.70 | < 4.52 | < 4.52
NC/C(=C\F)COc1ccc(S(=O)(=O)CC2(CN3CCOCC3)CC2)cc1 [Compound 116, (E)-3-fluoro-2-((4-(((1-(morpholinomethyl)cyclopropyl)methyl)sulfonyl)phenoxy)methyl) prop-2-en-1-amine] | 7.00 to 7.70 | < 4.52 | < 4.52
NC/C(=C\F)COc1ccc(S(=O)(=O)CN2C(=O)CCc3ccccc32)cc1 [Compound 119, (E)-1-(((4-((2-(aminomethyl)-3-fluoroallyl)oxy)phenyl)sulfonyl)methyl)-3,4-dihydroquinolin-2(1H)-one] | 7.00 to 7.70 | 4.52 to 5.00 | < 4.52
NC/C(=C\F)COc1ccc(S(=O)(=O)CN2C(=O)C3(CC3)c3ccccc32)cc1 [Compound 120, (E)-1′-(((4-((2-(aminomethyl)-3-fluoroallyl)oxy)phenyl)sulfonyl)methyl)spiro[cyclopropane-1,3′-indolin]-2′one] | 7.00 to 7.70 | < 4.52 | < 4.52
CC(C)C(=O)N(C)CS(=O)(=O)c1ccc(OC/C(=C/F)CN)cc1 [Compound 122, (E)-N-(((4-((2-(aminomethyl)-3-fluoroallyl)oxy)phenyl)sulfonyl)methyl)-N-methylisobutyramide] | 7.00 to 7.70 | < 4.52 | > 5.00
CC1(C)CCN(CS(=O)(=O)c2ccc(OC/C(=C/F)CN)cc2)C1=O [Compound 125, (E)-1-(((4-((2-(aminomethyl)-3-fluoroallyl)oxy)phenyl)sulfonyl)methyl)-3,3-dimethylpyrrolidin-2-one] | 7.00 to 7.70 | < 4.52 | > 5.00
NC/C(=C\F)COc1ccc(S(=O)(=O)CN2CCC3(CCCC3)C2=O)c(F)c1 [Compound 128, (E)-2-(((4-((2-(aminomethyl)-3-fluoroallyl)oxy)-2-fluorophenyl)sulfonyl)methyl)-2-azaspiro[4.4]nonan-1-one] | 6.30 to 7.00 | < 4.52 | < 4.52

Reference: US11472769B2, “SSAO inhibitors and use thereof” (Eccogene (Shanghai) Co., Ltd., priority 2019, dated 2022)
